# Reference: the supplement of paper PMC10307832
# Legend:
# Experiment in all cases: relative viability (nuclei count vs DMSO), 5 days (fraction); higher = more cells survive
# [1] = test system: NCI-H838
# Procedure, shortened: (§1)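 A single step with final 0.05% Triton X-100, 1% formaldehyde and 1 ug/ml Hoechst fixed the cells and stained nuclei 5 days after treatment. Lung cancer cell lines in 1536-well plates had been treated by pin tool the day after seeding with one drug alone or a fixed anchor-drug dose plus five library-drug doses (not always all listed) in √10 steps, and nuclei were counted on 4× images. Relative viability is the ratio of nuclei in treated wells to nuclei in vehicle wells, taken as the median of duplicate plates.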
# [2] = test system: NCI-H2405
# Procedure, shortened: as §1
# [3] = test system: UMC-11
# Procedure, shortened: as §1
# [4] = test system: NCI-H1975
# Procedure, shortened: as §1
# [5] = test system: LXF-289
# Procedure, shortened: as §1
# [6] = test system: NCI-H1437
# Procedure, shortened: as §1
# [7] = test system: NCI-H2085
# Procedure, shortened: as §1
# [8] = test system: NCI-H23
# Procedure, shortened: as §1
# [9] = test system: NCI-H2023
# Procedure, shortened: as §1
# [10] = test system: NCI-H441
# Procedure, shortened: as §1
# [11] = test system: HOP-62
# Procedure, shortened: as §1
# [12] = test system: EMC-BAC-2
# Procedure, shortened: as §1
smiles,measurement,setting,value
C=C1C(=O)O[C@@H](CCCCCCCC)[C@@H]1C(=O)O [C-75] + O=C(c1cc(Cc2n[nH]c(=O)c3ccccc23)ccc1F)N1CCN(C(=O)C2CC2)CC1 [Olaparib] (partner 8 µM),relative viability,[1]; first compound 0.08 µM,0.778
same,relative viability,[1]; first compound 0.253 µM,0.757
same,relative viability,[1]; first compound 0.8 µM,0.738
same,relative viability,[1]; first compound 2.53 µM,0.725
same,relative viability,[1]; first compound 8 µM,0.654
same,relative viability,[2]; first compound 0.08 µM,0.808
same,relative viability,[2]; first compound 0.253 µM,0.734
same,relative viability,[2]; first compound 0.8 µM,0.879
same,relative viability,[2]; first compound 2.53 µM,0.803
same,relative viability,[2]; first compound 8 µM,0.852
same,relative viability,[3]; first compound 0.08 µM,0.37
same,relative viability,[3]; first compound 0.253 µM,0.38
same,relative viability,[3]; first compound 0.8 µM,0.352
same,relative viability,[3]; first compound 2.53 µM,0.27
same,relative viability,[3]; first compound 8 µM,0.335
same,relative viability,[4]; first compound 0.08 µM,0.777
same,relative viability,[4]; first compound 0.253 µM,0.817
same,relative viability,[4]; first compound 0.8 µM,0.755
same,relative viability,[4]; first compound 2.53 µM,0.77
same,relative viability,[4]; first compound 8 µM,0.741
same,relative viability,[5]; first compound 0.08 µM,1.05
same,relative viability,[5]; first compound 0.253 µM,1.11
same,relative viability,[5]; first compound 0.8 µM,1.01
same,relative viability,[5]; first compound 2.53 µM,0.992
same,relative viability,[5]; first compound 8 µM,1.06
same,relative viability,[6]; first compound 0.08 µM,0.614
same,relative viability,[6]; first compound 0.253 µM,0.684
same,relative viability,[6]; first compound 0.8 µM,0.642
same,relative viability,[6]; first compound 8 µM,0.648
same,relative viability,[7]; first compound 0.08 µM,0.766
same,relative viability,[7]; first compound 0.253 µM,0.61
same,relative viability,[7]; first compound 0.8 µM,0.753
same,relative viability,[7]; first compound 2.53 µM,0.681
same,relative viability,[7]; first compound 8 µM,0.725
same,relative viability,[8]; first compound 0.08 µM,0.364
same,relative viability,[8]; first compound 0.253 µM,0.334
same,relative viability,[8]; first compound 0.8 µM,0.239
same,relative viability,[8]; first compound 2.53 µM,0.555
same,relative viability,[8]; first compound 8 µM,0.24
same,relative viability,[9]; first compound 0.08 µM,0.529
same,relative viability,[9]; first compound 0.253 µM,0.579
same,relative viability,[9]; first compound 0.8 µM,0.436
same,relative viability,[9]; first compound 8 µM,0.395
same,relative viability,[10]; first compound 0.08 µM,0.487
same,relative viability,[10]; first compound 0.253 µM,0.391
same,relative viability,[10]; first compound 0.8 µM,0.528
same,relative viability,[10]; first compound 8 µM,0.486
same,relative viability,[11]; first compound 0.08 µM,0.532
same,relative viability,[11]; first compound 0.253 µM,0.5
same,relative viability,[11]; first compound 0.8 µM,0.321
same,relative viability,[11]; first compound 2.53 µM,0.372
same,relative viability,[11]; first compound 8 µM,0.393
same,relative viability,[12]; first compound 0.08 µM,0.506
same,relative viability,[12]; first compound 0.253 µM,0.464
same,relative viability,[12]; first compound 0.8 µM,0.475
same,relative viability,[12]; first compound 2.53 µM,0.389
